{"source": "ChEMBL document CHEMBL3085748", "about": "“Acetylcholinesterase inhibitors as Alzheimer therapy: from nerve toxins to neuroprotection” (Eur J Med Chem, 2013)", "key": {"[1]": {"target": "T1, Acetylcholinesterase (Homo sapiens, UniProt P22303)", "T1 sequence (P22303 whole entry)": "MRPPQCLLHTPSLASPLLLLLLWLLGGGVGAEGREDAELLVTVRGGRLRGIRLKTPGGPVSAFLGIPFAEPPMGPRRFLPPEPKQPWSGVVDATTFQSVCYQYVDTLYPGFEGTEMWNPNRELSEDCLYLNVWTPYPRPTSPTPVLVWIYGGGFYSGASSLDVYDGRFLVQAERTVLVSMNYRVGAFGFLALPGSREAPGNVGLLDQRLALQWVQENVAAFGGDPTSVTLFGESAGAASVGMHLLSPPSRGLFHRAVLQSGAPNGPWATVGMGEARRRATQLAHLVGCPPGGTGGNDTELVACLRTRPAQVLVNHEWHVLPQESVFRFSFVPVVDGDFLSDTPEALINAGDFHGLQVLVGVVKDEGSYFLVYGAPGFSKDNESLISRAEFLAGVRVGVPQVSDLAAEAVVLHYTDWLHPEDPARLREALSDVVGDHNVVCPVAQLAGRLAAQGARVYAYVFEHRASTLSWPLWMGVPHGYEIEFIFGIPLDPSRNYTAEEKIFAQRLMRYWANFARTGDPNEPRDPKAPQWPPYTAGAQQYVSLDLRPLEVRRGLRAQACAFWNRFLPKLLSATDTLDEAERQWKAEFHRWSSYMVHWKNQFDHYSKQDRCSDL", "assay": "Inhibition of acetylcholinesterase (unknown origin)"}, "[2]": {"target": "T2, Acetylcholinesterase (Rattus norvegicus, UniProt P37136)", "T2 sequence (P37136 whole entry)": "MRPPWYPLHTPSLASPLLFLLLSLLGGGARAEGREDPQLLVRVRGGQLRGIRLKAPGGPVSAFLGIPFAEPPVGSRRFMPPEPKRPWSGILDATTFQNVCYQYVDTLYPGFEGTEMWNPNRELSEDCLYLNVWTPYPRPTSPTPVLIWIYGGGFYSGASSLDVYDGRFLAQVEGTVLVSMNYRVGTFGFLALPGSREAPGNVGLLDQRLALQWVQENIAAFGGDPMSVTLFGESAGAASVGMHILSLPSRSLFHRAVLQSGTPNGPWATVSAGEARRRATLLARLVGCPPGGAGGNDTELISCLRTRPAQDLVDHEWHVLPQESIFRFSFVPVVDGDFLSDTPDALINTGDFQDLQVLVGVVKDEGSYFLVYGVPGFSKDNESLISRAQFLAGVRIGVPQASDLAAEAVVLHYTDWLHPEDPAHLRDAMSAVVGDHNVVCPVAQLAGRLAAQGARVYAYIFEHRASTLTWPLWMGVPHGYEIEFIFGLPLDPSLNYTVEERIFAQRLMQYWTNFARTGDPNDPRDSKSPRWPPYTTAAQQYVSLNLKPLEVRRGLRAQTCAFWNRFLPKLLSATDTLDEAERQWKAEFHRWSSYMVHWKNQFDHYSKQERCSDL", "assay": "Inhibition of rat brain AChE"}, "[3]": {"target": "T3, Acetylcholinesterase (Electrophorus electricus, UniProt O42275)", "T3 sequence (O42275 whole entry)": "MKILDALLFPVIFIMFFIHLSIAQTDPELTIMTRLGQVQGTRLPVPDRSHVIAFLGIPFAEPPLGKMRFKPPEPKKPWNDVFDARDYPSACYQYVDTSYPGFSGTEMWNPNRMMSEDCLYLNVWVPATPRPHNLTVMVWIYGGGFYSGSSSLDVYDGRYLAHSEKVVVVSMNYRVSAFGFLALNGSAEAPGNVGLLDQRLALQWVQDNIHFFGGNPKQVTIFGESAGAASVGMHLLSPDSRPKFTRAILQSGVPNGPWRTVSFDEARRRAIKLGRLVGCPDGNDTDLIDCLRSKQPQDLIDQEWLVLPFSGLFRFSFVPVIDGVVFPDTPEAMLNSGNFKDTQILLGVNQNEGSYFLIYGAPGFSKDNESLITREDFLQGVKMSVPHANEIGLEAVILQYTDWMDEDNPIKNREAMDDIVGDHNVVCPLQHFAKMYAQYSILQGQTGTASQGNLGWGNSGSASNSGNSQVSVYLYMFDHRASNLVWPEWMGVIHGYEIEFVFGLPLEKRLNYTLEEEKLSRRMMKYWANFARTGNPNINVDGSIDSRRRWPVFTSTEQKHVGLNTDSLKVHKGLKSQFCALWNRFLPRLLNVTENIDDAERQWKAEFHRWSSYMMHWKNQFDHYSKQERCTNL", "assay": "Inhibition of electric eel acetylcholinesterase using acetylthiocholine chloride as substrate preincubated for 15 mins followed by substrate addition measured every 1 min by spectrophotometric analysis"}, "[4]": {"target": "Cholinesterase (Equus caballus, UniProt P81908)", "sequence (P81908 whole entry)": "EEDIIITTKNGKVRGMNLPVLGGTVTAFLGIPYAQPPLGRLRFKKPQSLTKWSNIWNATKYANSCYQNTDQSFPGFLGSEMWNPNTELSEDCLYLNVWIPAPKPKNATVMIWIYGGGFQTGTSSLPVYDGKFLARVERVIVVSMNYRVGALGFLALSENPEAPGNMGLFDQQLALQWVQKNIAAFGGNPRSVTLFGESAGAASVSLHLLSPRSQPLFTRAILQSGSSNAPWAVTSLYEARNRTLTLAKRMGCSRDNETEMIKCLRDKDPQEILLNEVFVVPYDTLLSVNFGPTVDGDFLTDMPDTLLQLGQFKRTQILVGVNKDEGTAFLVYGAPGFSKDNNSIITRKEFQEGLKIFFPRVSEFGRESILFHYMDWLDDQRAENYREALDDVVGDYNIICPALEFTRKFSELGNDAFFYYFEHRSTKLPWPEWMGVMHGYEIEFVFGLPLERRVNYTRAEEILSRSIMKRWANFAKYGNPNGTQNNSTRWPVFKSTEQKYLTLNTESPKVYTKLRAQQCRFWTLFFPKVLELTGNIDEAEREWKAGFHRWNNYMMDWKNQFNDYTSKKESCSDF", "assay": "Inhibition of equine serum BuChE after 15 mins by spectrophotometric analysis"}, "[5]": {"target": "T3, Acetylcholinesterase", "assay": "Inhibition of electric eel acetylcholinesterase using acetylcholine chloride as substrate measured every 1 min by chemiluminescent assay"}, "[6]": {"target": "T4, Acetylcholinesterase (Bos taurus, UniProt P23795)", "T4 sequence (P23795 whole entry)": "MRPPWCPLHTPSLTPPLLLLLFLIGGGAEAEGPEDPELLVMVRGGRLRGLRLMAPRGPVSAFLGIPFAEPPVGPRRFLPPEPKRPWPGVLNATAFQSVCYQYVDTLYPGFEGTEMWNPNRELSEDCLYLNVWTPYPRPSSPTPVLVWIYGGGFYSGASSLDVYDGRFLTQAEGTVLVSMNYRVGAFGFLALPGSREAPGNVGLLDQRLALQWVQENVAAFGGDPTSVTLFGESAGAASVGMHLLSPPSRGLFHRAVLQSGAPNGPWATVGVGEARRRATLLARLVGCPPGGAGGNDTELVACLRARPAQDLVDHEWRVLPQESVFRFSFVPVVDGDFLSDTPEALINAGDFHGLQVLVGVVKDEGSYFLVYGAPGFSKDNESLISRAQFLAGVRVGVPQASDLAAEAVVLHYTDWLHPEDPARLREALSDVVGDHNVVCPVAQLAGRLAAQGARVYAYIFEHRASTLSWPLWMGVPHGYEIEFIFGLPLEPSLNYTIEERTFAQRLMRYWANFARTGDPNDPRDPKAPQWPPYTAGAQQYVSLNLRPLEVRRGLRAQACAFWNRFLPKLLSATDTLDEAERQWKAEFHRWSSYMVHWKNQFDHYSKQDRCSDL", "assay": "Inhibition of bovine erythrocyte acetylcholinesterase using acetylthiocholine iodide as substrate after 15 mins by Ellman's method"}, "[7]": {"target": "T1, Acetylcholinesterase", "assay": "Inhibition of acetylcholinesterase (unknown origin) by Ellman's method"}}, "data": [{"smiles": "CCOC(=O)C1=C(C)Oc2nc3c(c(N)c2C1c1ccc(OC)cc1)CCCC3", "note": "(centres undefined)", "values": [{"measurement": "IC50", "setting": "[1]", "result": 0.868, "unit": "µM"}]}, {"smiles": "CC(=O)CCCCCCCCCCCC[C@H]1CC[C@@H](OC(C)=O)[C@@H](C)N1", "values": [{"measurement": "IC50", "setting": "[2]", "result": 7.32, "unit": "µM"}]}, {"smiles": "CC(=O)CCCCCCCCCCCC[C@H]1CC[C@@H](OC(=O)OC(C)(C)C)[C@@H](C)N1", "values": [{"measurement": "IC50", "setting": "[2]", "result": 15.1, "unit": "µM"}]}, {"smiles": "COc1cc2c3c(c1OC)/C1=C/C[C@H](O)C[C@@H](O)[C@H](O1)[C@@H]3N(C)CC2", "values": [{"measurement": "IC50", "setting": "[3]", "result": 0.72, "unit": "µM"}, {"measurement": "IC50", "setting": "[4]", "result": 13.4, "unit": "µM"}]}, {"smiles": "O=C1CCN(Cc2ccccc2)C/C1=C\\c1c[nH]c2ccccc12", "values": [{"measurement": "IC50", "setting": "[5]", "result": 8, "unit": "µM"}]}, {"smiles": "Cc1nn(-c2ccccc2)c2nc3nc4c(c(N)c3cc12)CCCC4", "values": [{"measurement": "IC50", "setting": "[6]", "result": 6.4, "unit": "µM"}]}, {"smiles": "CCn1c(=O)n(C)s/c1=N\\CCC1CCN(Cc2ccccc2)CC1", "values": [{"measurement": "IC50", "setting": "[7]", "result": 0.14, "unit": "µM"}]}, {"smiles": "CCOC(=O)C1=C(C)Oc2nc3c(c(N)c2C1c1ccc(C)cc1)CCCC3", "note": "(centres undefined)", "values": [{"measurement": "IC50", "setting": "[1]", "result": 0.182, "unit": "µM"}]}]}
